Molecular target: T1, human PAD4 (Homo sapiens, UniProt Q9UM07)
T1 construct: human PAD4 (NM_012387), A2-P663, was PCR amplified; His-SUMO (N, cleaved yes); made in house; host or cells: E. coli BL21(DE3)
Assay: In vitro PAD4 BAEE biochemical assay
Details: BAEE substrate 3 mM, 5 nM PAD4, 2 mM calcium chloride; geometric mean of multiple experiments
Method in brief: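 Assay was run at 25 °C using 3 mM BAEE and 5 nM human PAD4 after a 30 min compound preincubation; ammonia produced over 2 h was quantified by OPA-derived fluorescence. Full inhibition was defined by 50 µM BB-Cl-Amidine, and IC50 came from variable-slope nonlinear regression.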

T1 sequence (Q9UM07 2-663): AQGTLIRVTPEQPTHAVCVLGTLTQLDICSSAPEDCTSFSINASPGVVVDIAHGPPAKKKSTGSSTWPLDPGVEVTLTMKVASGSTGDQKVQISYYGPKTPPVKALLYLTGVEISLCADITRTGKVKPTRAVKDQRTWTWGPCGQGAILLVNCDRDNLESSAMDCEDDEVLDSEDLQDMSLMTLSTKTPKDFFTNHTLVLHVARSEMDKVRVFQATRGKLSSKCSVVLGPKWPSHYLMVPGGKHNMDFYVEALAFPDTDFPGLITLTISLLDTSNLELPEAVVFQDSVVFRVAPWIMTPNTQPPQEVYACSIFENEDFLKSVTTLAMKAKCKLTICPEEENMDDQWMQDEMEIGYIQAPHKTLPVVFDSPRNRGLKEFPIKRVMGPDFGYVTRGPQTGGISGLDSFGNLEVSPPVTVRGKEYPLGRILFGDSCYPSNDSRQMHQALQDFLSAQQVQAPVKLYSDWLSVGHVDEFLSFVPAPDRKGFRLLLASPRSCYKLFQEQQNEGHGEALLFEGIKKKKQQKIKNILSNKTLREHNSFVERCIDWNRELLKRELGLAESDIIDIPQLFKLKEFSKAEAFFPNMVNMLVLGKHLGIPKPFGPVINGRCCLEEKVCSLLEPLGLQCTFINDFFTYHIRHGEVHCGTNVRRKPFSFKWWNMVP

IC50 [nM] | SMILES
21 | C[C@H]1NC(=O)[C@@H]2C[C@@]2(F)CCCCCn2c(-c3nc4cc(C(=O)N5C[C@H](N)[C@@H]6CC[C@H]5C6)cc(F)c4n3C3CC3)cc3ccc1nc32 [Example 450, (2~{R},5~{S},7~{S})-14-[5-[(1~{S},4~{R},5~{R})-4-amino-2-azabicyclo[3.2.1]octane-2-carbonyl]-1-cyclopropyl-7-fluoro-benzimidazol-2-yl]-7-fluoro-2-methyl-3,13,19-triazatetracyclo[11.5.2.0^{5,7}.0^{16,20}] icosa-1(19),14,16(20),17-tetraen-4-one]
23 | COc1cc(C(=O)N2[C@H]3CC[C@@H]2[C@H](N)[C@H](OC)C3)cc2nc(-c3cc4ccc5nc4n3CC(F)(F)CCC[C@@H]3C[C@H]3C(=O)N[C@@H]5C)n(C)c12 [Example 726, (2~{R},5~{R},7~{R})-14-[5-[(1~{R},2~{S},3~{R}, 5~{S})-2-amino-3-methoxy-8-azabicyclo[3.2.1]octane-8-carbonyl]-7-methoxy-1-methyl-benzimidazol-2-yl]-11,11-difluoro-2-methyl-3,13,19-triazatetracyclo[11.5.2.0^ {5,7}.0^{16,20}] icosa-1(19),14,16(20), 17-tetraen-4-one]
68 | C[C@H]1NC(=O)c2nccnc2CCCCCn2c(-c3nc4cc(C(=O)N[C@H]5CNCC[C@@H]5F)c(F)cc4n3C3CC3)cc3ccc1nc32 [Example 243, 1-cyclopropyl-6-fluoro-~{N}-[(3~{S},4~{S})-4-fluoro-3-piperidyl]-2-[(2~{R})-2-methyl-4-oxo-3,6,9,16,22-pentazatetracyclo[14.5.2.0^{5,10}.0^{19, 23}]tricosa-1(21),5(10),6,8,17,19,22-heptaen-17-yl]benzimidazole-5-carboxamide]
38 | C[C@H]1NC(=O)c2c(ncc3ccccc23)CCCCCn2c(-c3nc4cc(C(=O)N5C[C@H](N)[C@@H]6CC[C@H]5C6)cc(F)c4n3C3CC3)cc3ccc1nc32 [Example 457, (2~{R})-21-[5-[(1~{S),4~{R},5~{R})-4-amino-2-azabicyclo[3.2.1]octane-2-carbonyl]-1-cyclopropyl-7-fluoro-benzimidazol-2-yl]-2-methyl-3,13,20,26-tetrazapentacyclo[18.5.2.0^{5,14}.0^ {6,11}.0^{23,27}]heptacosa-1(26),5(14),6(11),7,9,12,21,23(27),24-nonaen-4-one]
32 | COc1cc(C(=O)N2C[C@H](N)[C@@H]3CC[C@H]2C3)cc2nc(-c3cc4ccc5nc4n3CCCCCc3ccccc3C(=O)N[C@@H]5C)n(C)c12 [Example 439, (2˜{R})-17-[5-[(1˜{S},4˜{R},5˜{R})-4-amino-2-azabicyclo[3.2.1]octane-2-carbonyl]-7-methoxy-1-methyl-benzimidazol-2-yl]-2-methyl-3,16,22-triazatetracyclo[14.5.2.0^{5,10}.0^{19,23}]tricosa-1(22),5(10),6,8,17,19(23),20-heptaen-4-one]
50 | C[C@H]1NC(=O)[C@H]2C[C@@H]2C/C=C/C(F)(F)Cn2c(-c3nc4cc(C(=O)N[C@H]5CNCC[C@@H]5F)c(F)c(F)c4n3C)cc3ccc1nc32 [Example 547, 2-[(2~{R},5~{S},7~ {S},9~{E})-11,11-difluoro-2-methyl-4-oxo-3,13,19-triazatetracyclo [11.5.2.0^{5,7}.0^{16,20}]icosa-1(19),9,14,16(20), 17-pentaen-14-yl]-6,7-difluoro-~ {N}-[(3~{S},4~{S})-4-fluoro-3-piperidyl]-1-methyl-benzimidazole-5-carboxamide]
76 | COc1cc(C(=O)N2CCC[C@@H](N)[C@H]2C(F)F)cc2nc(-c3cc4ccc5nc4n3CCCCCCC(C)(C)C(=O)N[C@@H]5C)n(C)c12 [Example 644, (11~{R})-17-[5-[(2~{S), 3~{R})-3-amino-2-(difluoromethyl)piperidine-1-carbonyl]-7-methoxy-1-methyl-benzimidazol-2-yl]-8,8,11-trimethyl-1,10,19-triazatricyclo [10.5.2.0^{15,18}]nonadeca-12(19),13,15(18),16-tetraen-9-one]
7450 | COc1cc(C(=O)N2[C@H]3CC[C@@H]2[C@H](N)C3)cc2nc(-c3cc4ccc5cc4n3CCCC3CCN(CC3)C(=O)c3ccccc3-5)n(C)c12 [Example 101, 17-[5-[(1~{R},2~{R},4~{S})-2-amino-7-azabicyclo[2.2.1]heptane-7-carbonyl]-7-methoxy-1-methyl-benzimidazol-2-yl]-9,16-diazapentacyclo[14.5.2.2^{9,12}.0^{2,7}.0^ {19,23}]pentacosa-1(22),2,4,6,17,19(23),20-heptaen-8-one]
37 | COc1cc(C(=O)N2C[C@H](N)[C@@H]3CC[C@H]2C3)cc2nc(-c3cc4ccc5nc4n3CCCCC[C@@H]3C[C@@]3(F)C(=O)N[C@@H]5C)n(C)c12 [Example 447, (2~{R},5~{S},7~{R})-14-[5-[(1~{S},4~{R},5~{R})-4-amino-2-azabicyclo[3.2.1]octane-2-carbonyl]-7-methoxy-1-methyl-benzimidazol-2-yl]-5-fluoro-2-methyl-3,13,19-triazatetracyclo[11.5.2.0^{5,7}.0^{16,20}] icosa-1(19),14,16(20),17-tetraen-4-one]
113 | COc1cc(C(=O)N2CCC[C@@H](N)C2)cc2nc(-c3cc4ccc5nc4n3CCCCCCCC(=O)N[C@@H]5C(F)(F)F)n(C)c12 (single isomer, unassigned) [Example 235, (11˜{S})-17-[5-[(3˜{R})-3-aminopiperidine-1-carbonyl]-7-methoxy-1-methyl-benzimidazol-2-yl]-11-(trifluoromethyl)-1,10,19-triazatricyclo[10.5.2.0^{15,18}]nonadeca-12(19),13,15(18),16-tetraen-9-one]
38 | COc1cc(C(=O)N2C[C@H](N)[C@@H]3CC[C@H]2C3)cc2nc(-c3cc4ccc5nc4n3CC(F)(F)CCCc3cncc(F)c3C(=O)N[C@@H]5C)n(C)c12 [Example 446, (2~{R})-17-[5-[(1~{S},4~{R},5~{R})-4-amino-2-azabicyclo[3.2.1]octane-2-carbonyl]-7-methoxy-1-methyl-benzimidazol-2-yl]-6,14,14-trifluoro-2-methyl-3,8,16,22-tetrazatetracyclo[14.5.2.0^{5,10}.0^{19,23}] tricosa-1(22),5(10),6,8,17,19(23),20-heptaen-4-one]
21 | COc1cc(C(=O)N2CC[C@@H](OC)[C@@H](N)C2)cc2nc(-c3cc4ccc5nc4n3CC(F)(F)CCC[C@]3(F)C[C@H]3C(=O)N[C@@H]5C)n(C)c12 [Example 702, (2~{R},5~{S},7~{S})-14-[5-[(3~{S},4~{R})-3-amino-4-methoxy-piperidine-1-carbonyl]-7-methoxy-1-methyl-benzimidazol-2-yl]-7,11,11-trifluoro-2-methyl-3,13,19-triazatetracyclo[11.5.2.0^ {5,7}.0^{16,20}]icosa-1(19),14,16(20),17-tetraen-4-one]
56 | COc1cc(C(=O)N2[C@H]3CC[C@@H]2[C@H](N)C3)cc2nc(-c3cc4ccc5nc4n3CC(F)(F)CCCCCC(=O)N[C@@H]5C)n(C)c12 [Example 534, (11~{R})-17-[5-[(1~ {R},2~{R},4~{S})-2-amino-7-azabicyclo[2.2.1]heptane-7-carbonyl]-7-methoxy-1-methyl-benzimidazol-2-yl]-3,3-difluoro-11-methyl-1,10,19-triazatricyclo[10.5.2.0^ {15,18}]nonadeca-12(19),13,15(18),16-tetraen-9-one]
168 | C[C@H]1NC(=O)c2ccc(C#Cc3ccccc3)nc2CCCCCn2c(-c3nc4cc(C(=O)N5C[C@H](N)[C@@H]6CC[C@H]5C6)cc(F)c4n3C3CC3)cc3ccc1nc32 [Example 820, (2˜{R})-17-[5-[(1˜{S},4˜{R},5˜{R})-4-amino-2-azabicyclo[3.2.1]octane-2-carbonyl]-1-cyclopropyl-7-fluoro-benzimidazol-2-yl]-2-methyl-8-(2-phenylethynyl)-3,9,16,22-tetrazatetracyclo[14.5.2.0^{5,10}.0^{19,23}]tricosa-1(21),5(10),6,8,17,19,22-heptaen-4-one]
31 | C[C@H]1NC(=O)[C@@H]2C[C@H]2CCCCCn2c(-c3nc4cc(C(=O)N[C@H]5CNCC[C@@H]5F)c(F)cc4n3C)cc3ccc1nc32 [Example 242, 6-fluoro-~{N}-[(3~{S},4~{S})-4-fluoro-3-piperidyl]-1-methyl-2-[(2~{R},5~{R},7~{R})-2-methyl-4-oxo-3,13,19-triazatetracyclo[11.5.2.0^{5,7}.0^{16,20}]icosa-1(19),14,16(20),17-tetraen-14-yl]benzimidazole-5-carboxamide]
954 | COc1cc(C(=O)N2CC[C@@H](OC)[C@@H](N)C2)cc2nc(-c3cc4ccc5nc4n3CCCCCCC(C)(C)C(=O)NC5C(F)(F)F)n(C)c12 (some centres unmarked) [Example 785, 17-[5-[(3~{S},4~{R})-3-amino-4-methoxy-piperidine-1-carbonyl]-7-methoxy-1-methyl-benzimidazol-2-yl]-8,8-dimethyl-11-(trifluoromethyl)-1,10,19-triazatricyclo [10.5.2.0^{15,18}]nonadeca-12,14,16,18-tetraen-9-one]
137 | COc1cc(C(=O)N[C@@H]2CCCNC2)cc2nc(-c3cc4ccc5nc4n3CCCCCCC(C)(C)C(=O)N[C@@H]5C)n(C)c12 [Example 70, 7-methoxy-1-methyl-~{N}-[(3~{R})-3-piperidyl]-2-[(11~{R})-8,8,11-trimethyl-9-oxo-1,10,19-triazatricyclo[10.5.2.0^{15,18}]nonadeca-12(19),13,15(18),16-tetraen-17-yl]benzimidazole-5-carboxamide]
